Where a name gives a salt, the structure may show the parent alone.

Chain of MAGL (Q99685 whole entry, species assumed): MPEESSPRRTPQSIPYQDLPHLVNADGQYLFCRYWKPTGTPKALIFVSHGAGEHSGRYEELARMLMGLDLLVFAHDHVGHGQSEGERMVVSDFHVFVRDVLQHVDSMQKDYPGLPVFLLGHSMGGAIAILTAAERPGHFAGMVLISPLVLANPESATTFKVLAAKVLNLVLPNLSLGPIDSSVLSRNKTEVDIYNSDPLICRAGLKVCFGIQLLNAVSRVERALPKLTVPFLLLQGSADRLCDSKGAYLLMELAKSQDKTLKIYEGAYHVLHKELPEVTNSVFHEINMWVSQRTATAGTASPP

This assay has as its target MAGL (Homo sapiens (Human), UniProt Q99685). The assay can be described thus: 2-AG assay (MAGL inhibitory activity, hydrolysis of 2-arachidonoylglycerol followed by mass spectrometry). In kind it is biochemical. The settings on record: 50 pM MAGL protein, 15 min pre-incubation, 30 min incubation at RT. In short, it runs like this:
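Human MAGL (50 pM final) preincubated 15 min at RT with compound (3-fold dilutions, 12.5 μM to 0.8 pM final) in 50 mM TRIS, 1 mM EDTA, 0.01% Tween-20, 2.5% DMSO. Reaction with […] 2-AG ran 30 min at RT, then was quenched with acetonitrile containing d8-arachidonic acid. Arachidonic acid measured by SPE–triple-quad MS (negative ESI), activity from the arachidonic/d8-arachidonic acid intensity ratio.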
In general, IC50 refers to the midpoint of a concentration-inhibition curve. High values mean weaker potency in that assay, low ones greater potency in that assay. `C[C@H]1c2nn(C)c(-c3cc(Cl)cc(C4(NS(C)(=O)=O)CC4)c3)c2CCN1C(=O)c1cc(F)cc(CCc2c[nH]nn2)c1Cl` [Example 88, N-[1-[3-chloro-5-[(7S)-6-[2-chloro-5-fluoro-3-[2-(1H-triazol-4-yl)ethyl]benzoyl]-2,7-dimethyl-5,7-dihydro-4H-pyrazolo[3,4-c]pyridin-3-yl]phenyl]cyclopropyl]methanesulfonamide] returned an IC50 of 1.77 nM.

`C[C@@H]1c2nn(C)c(-c3cc(Cl)cc(C4(NS(C)(=O)=O)CC4)c3)c2CCN1C(=O)c1cc(F)cc(CCc2c[nH]nn2)c1Cl` [Example 89, N-[1-[3-chloro-5-[(7R)-6-[2-chloro-5-fluoro-3-[2-(1H-triazol-4-yl)ethyl]benzoyl]-2,7-dimethyl-5,7-dihydro-4H-pyrazolo[3,4-c]pyridin-3-yl]phenyl]cyclopropyl]methanesulfonamide] yielded an IC50 of 26.8 nM.

On to `C[C@H]1c2nn(C)c(-c3cc(F)c(F)c(F)c3F)c2CCN1C(=O)c1cc(F)cc(-c2c[nH]c(C#N)c2)c1Cl` [Example 90, 4-[2-chloro-3-[(7S)-2,7-dimethyl-3-(2,3,4,5-tetrafluorophenyl)-5,7-dihydro-4H-pyrazolo[3,4-c]pyridine-6-carbonyl]-5-fluoro-phenyl]-1H-pyrrole-2-carbonitrile], for which inhibition was half-maximal at 24.6 nM (IC50).

Turning to `C[C@H]1c2nn(C)c(-c3cc(Cl)cc(C4(NS(C)(=O)=O)CC4)c3)c2CCN1C(=O)c1ncn(-c2cc(Cl)cnc2O)n1` [Example 91, N-[1-[3-chloro-5-[(7S)-6-[1-(5-chloro-2-hydroxy-3-pyridyl)-1,2,4-triazole-3-carbonyl]-2,7-dimethyl-5,7-dihydro-4H-pyrazolo[3,4-c]pyridin-3-yl]phenyl]cyclopropyl]methanesulfonamide], it took 1730 nM to reach half-maximal inhibition (IC50).

On to `C[C@H]1c2nn(C)c(-c3cc(F)c(F)c(F)c3)c2CCN1C(=O)c1cc(F)cc(-c2c[nH]c(C#N)c2)c1Cl` [Example 92, 4-[2-chloro-3-[(7S)-2,7-dimethyl-3-(3,4,5-trifluorophenyl)-5,7-dihydro-4H-pyrazolo[3,4-c]pyridine-6-carbonyl]-5-fluoro-phenyl]-1H-pyrrole-2-carbonitrile], for which it took 4.35 nM to reach half-maximal inhibition (IC50).

Regarding `C[C@@H]1c2nn(C)c(-c3cc(F)c(F)c(F)c3)c2CCN1C(=O)c1cc(F)cc(-c2c[nH]c(C#N)c2)c1Cl` [Example 93, 4-[2-chloro-3-[(7R)-2,7-dimethyl-3-(3,4,5-trifluorophenyl)-5,7-dihydro-4H-pyrazolo[3,4-c]pyridine-6-carbonyl]-5-fluoro-phenyl]-1H-pyrrole-2-carbonitrile], the IC50 was 734 nM.

As to `C[C@H]1c2nn(C)c(-c3cc(Cl)cc(C4(NS(C)(=O)=O)CC4)c3)c2CCN1C(=O)c1cc(F)cc(-c2cn[nH]c2)c1F` [Example 94, N-[1-[3-chloro-5-[(7S)-6-[2,5-difluoro-3-(1H-pyrazol-4-yl)benzoyl]-2,7-dimethyl-5,7-dihydro-4H-pyrazolo[3,4-c]pyridin-3-yl]phenyl]cyclopropyl]methanesulfonamide], the midpoint of inhibition, the IC50, lay at 472 nM.

`COc1cccc(C(=O)N2CCc3c(nn(C)c3-c3cc(Cl)cc(CC(C)(C)O)c3)[C@@H]2C)c1Cl` [Example 95, [(7S)-3-[3-chloro-5-(2-hydroxy-2-methyl-propyl)phenyl]-2,7-dimethyl-5,7-dihydro-4H-pyrazolo[3,4-c]pyridin-6-yl]-(2-chloro-3-methoxy-phenyl)methanone] gave an IC50 of 16.9 nM.

The molecule `C[C@@H]1c2nn(C)c(-c3cncc(C(F)(F)F)n3)c2CCN1C(=O)c1ncn(-c2ccc[nH]c2=O)n1` [Example 96, 3-[3-[(7R)-2,7-dimethyl-3-[6-(trifluoromethyl)pyrazin-2-yl]-5,7-dihydro-4H-pyrazolo[3,4-c]pyridine-6-carbonyl]-1,2,4-triazol-1-yl]-1H-pyridin-2-one] registered an IC50 of 1260 nM.

Molecule `CC1c2nn(C)c(-c3cc(F)cc(F)c3)c2CCN1C(=O)c1cc(F)cc(C2=CC(Cl)C(=O)N=C2)c1Cl` (stereo not drawn) [Example 97, 3-chloro-5-[2-chloro-3-[3-(3,5-difluorophenyl)-2,7-dimethyl-5,7-dihydro-4H-pyrazolo[3,4-c]pyridine-6-carbonyl]-5-fluoro-phenyl]-3H-pyridin-2-one] displayed an IC50 of 8.44 nM.

`C[C@H]1c2nn(C)c(-c3cc(F)cc(F)c3)c2CCN1C(=O)c1cc(F)cc(C2=CC(Cl)C(=O)N=C2)c1Cl` (stereo partly drawn) [Example 98, 3-chloro-5-[2-chloro-3-[(7S)-3-(3,5-difluorophenyl)-2,7-dimethyl-5,7-dihydro-4H-pyrazolo[3,4-c]pyridine-6-carbonyl]-5-fluoro-phenyl]-3H-pyridin-2-one] yielded an IC50 of 5.97 nM.

With `C[C@@H]1c2nn(C)c(-c3cc(F)cc(F)c3)c2CCN1C(=O)c1cc(F)cc(C2=CC(Cl)C(=O)N=C2)c1Cl` (stereo partly drawn) [Example 99, 3-chloro-5-[2-chloro-3-[(7R)-3-(3,5-difluorophenyl)-2,7-dimethyl-5,7-dihydro-4H-pyrazolo[3,4-c]pyridine-6-carbonyl]-5-fluoro-phenyl]-3H-pyridin-2-one], the IC50 worked out at 767 nM.

The molecule `C[C@H]1c2nn(C)c(-c3cc(F)cc(F)c3)c2CCN1C(=O)c1ncn(-c2cc(Cl)cnc2O)n1` [Example 100, [1-(5-chloro-2-hydroxy-3-pyridyl)-1,2,4-triazol-3-yl]-[(7S)-3-(3,5-difluorophenyl)-2,7-dimethyl-5,7-dihydro-4H-pyrazolo[3,4-c]pyridin-6-yl]methanone] displayed an IC50 of 31.9 nM.

Turning to `C[C@@H]1c2nn(C)c(-c3cc(F)cc(F)c3)c2CCN1C(=O)c1ncn(-c2cc(Cl)cnc2O)n1` [Example 101, [1-(5-chloro-2-hydroxy-3-pyridyl)-1,2,4-triazol-3-yl]-[(7R)-3-(3,5-difluorophenyl)-2,7-dimethyl-5,7-dihydro-4H-pyrazolo[3,4-c]pyridin-6-yl]methanone], the IC50 was 3020 nM.

Consider `C[C@H]1c2nn(C)c(-c3cc(F)cc(F)c3)c2CCN1C(=O)c1cc(F)cc(CCc2cn[nH]c2)c1Cl` [Example 102, [2-chloro-5-fluoro-3-[2-(JH-pyrazol-4-yl)ethyl]phenyl]-[(7S)-3-(3,5-difluorophenyl)-2,7-dimethyl-5,7-dihydro-4H-pyrazolo[3,4-c]pyridin-6-yl]methanone], for which the midpoint of inhibition, the IC50, lay at 1.53 nM.

Molecule `C[C@@H]1c2nn(C)c(-c3cc(F)cc(F)c3)c2CCN1C(=O)c1cc(F)cc(CCc2cn[nH]c2)c1Cl` [Example 103, [2-chloro-5-fluoro-3-[2-(1H-pyrazol-4-yl)ethyl]phenyl]-[(7R)-3-(3,5-difluorophenyl)-2,7-dimethyl-5,7-dihydro-4H-pyrazolo[3,4-c]pyridin-6-yl]methanone] returned an IC50 of 440 nM.

For `C[C@H]1c2nn(C)c(-c3cc(F)cc(F)c3)c2CCN1C(=O)c1cc(F)cc(CCc2c[nH]nn2)c1Cl` [Example 104, [2-chloro-5-fluoro-3-[2-(JH-triazol-4-yl)ethyl]phenyl]-[(7S)-3-(3,5-difluorophenyl)-2,7-dimethyl-5,7-dihydro-4H-pyrazolo[3,4-c]pyridin-6-yl]methanone], the IC50 amounted to 42.4 nM.

In the case of `C[C@@H]1c2nn(C)c(-c3cc(F)cc(F)c3)c2CCN1C(=O)c1cc(F)cc(CCc2c[nH]nn2)c1Cl` [Example 105, [2-chloro-5-fluoro-3-[2-(JH-triazol-4-yl)ethyl]phenyl]-[(7R)-3-(3,5-difluorophenyl)-2,7-dimethyl-5,7-dihydro-4H-pyrazolo[3,4-c]pyridin-6-yl]methanone], the IC50 turned out to be 1.01 nM.

Turning to `CC1c2nn(C)c(-c3cc(F)cc(F)c3)c2CCN1C(=O)c1cc(F)cc(CNC2CNC(=O)C2)c1Cl` (stereo not drawn) [Example 106, 4-[[2-chloro-3-[3-(3,5-difluorophenyl)-2,7-dimethyl-5,7-dihydro-4H-pyrazolo[3,4-c]pyridine-6-carbonyl]-5-fluoro-phenyl]methylamino]pyrrolidin-2-one;hydrochloride], the IC50 is 12.4 nM.

On to `C[C@H]1c2nn(C)c(-c3cc(F)cc(F)c3)c2CCN1C(=O)c1cc(Cl)cc(OCC2CNC(=O)O2)c1Cl` (stereo partly drawn) [Example 107, 5-[[2,5-dichloro-3-[(7S)-3-(3,5-difluorophenyl)-2,7-dimethyl-5,7-dihydro-4H-pyrazolo[3,4-c]pyridine-6-carbonyl]phenoxy]methyl]oxazolidin-2-one], for which half-maximal inhibition (IC50) was put at 0.61 nM.

`C[C@H]1c2nn(C)c(-c3cc(F)cc(F)c3)c2CCN1C(=O)c1cccc(OCC2CNC(=O)O2)c1Cl` (stereo partly drawn) [Example 110, 5-[[2-chloro-3-[(7S)-3-(3,5-difluorophenyl)-2,7-dimethyl-5,7-dihydro-4H-pyrazolo[3,4-c]pyridine-6-carbonyl]phenoxy]methyl]oxazolidin-2-one]: 2.09 nM corresponded to half-maximal inhibition (IC50).

In the case of `C[C@H]1c2nn(C)c(-c3cc(F)cc(F)c3)c2CCN1C(=O)c1cc(F)cc(N2CC3(CCN3)C2)c1Cl` [Example 111, [2-chloro-3-(1,6-diazaspiro[3.3]heptan-6-yl)-5-fluoro-phenyl]-[(7S)-3-(3,5-difluorophenyl)-2,7-dimethyl-5,7-dihydro-4H-pyrazolo[3,4-c]pyridin-6-yl]methanone;2,2,2-trifluoroacetic acid], the midpoint of inhibition, the IC50, lay at 51.6 nM.

`C[C@H]1c2nn(C)c(-c3cc(F)cc(F)c3)c2CCN1C(=O)c1ncn(-c2ccnc(O)c2)n1` [Example 112, [(7S)-3-(3,5-difluorophenyl)-2,7-dimethyl-5,7-dihydro-4H-pyrazolo[3,4-c]pyridin-6-yl]-[1-(2-hydroxy-4-pyridyl)-1,2,4-triazol-3-yl]methanone]: the IC50 was 1660 nM.

`C[C@H]1c2nn(C)c(-c3cc(F)cc(F)c3)c2CCN1C(=O)c1cc(F)cc(OC[C@H]2CNC(=O)N2)c1Cl` [Example 115, (4R)-4-[[2-chloro-3-[(7S)-3-(3,5-difluorophenyl)-2,7-dimethyl-5,7-dihydro-4H-pyrazolo[3,4-c]pyridine-6-carbonyl]-5-fluoro-phenoxy]methyl]imidazolidin-2-one] yielded an IC50 of 4.88 nM.

The record behind these values is US20250059185A1 (Hoffmann-La Roche Inc., priority 2021, published 2025).
